What was measured:
[1] = tested on: PQ-treated Neuro-2a cells; experiment: Propidium iodide straining of PQ-treated Neuro-2a cells (membrane permeability); type: cell-based, mouse; settings: compound 10 μM pre-incubation, PQ-treated cells, 24 h
Protocol: The cells (1 × 10^4 cells/well) were seeded in black 96-well plates before testing. After incubation of the cells with compounds and PQ during 24 h, PI solution (10 μg/mL) was added to each well and the plate was incubated in the dark at 37 °C for 10 min. Cells were washed with phosphate buffer saline (PBS) (BioloT, St.Peterburg, Russia) and fluorescence was measured with a Fluoroskan Ascent plate reader (Thermo Labsystems, Helsinki, Finland) at […]. All manipulations with fluorescent probes were carried out in a darkened room. The results were presented as percent of positive control data.

[2] = tested on: mitochondrial membrane potential in PQ-treated Neuro-2a cells; experiment: Mitochondrial membrane potential detection (TMRM) in PQ-treated Neuro-2a cells; type: cell-based, mouse; settings: compound 10 μM, PQ 500 µM 1 h
Protocol: The cells (1 × 10^4 cells/well of a 96-well plate) were incubated with compound solutions (1 and 10 µM) during 1 h. Then, PQ was added to cell suspension to a resulting concentration of 500 µM for incubation during 1 h. Cells incubated without PQ and compounds and with PQ alone were used as positive and negative controls, respectively. The tetramethylrhodamine methyl (TMRM) (Sigma-Aldrich, St. Louis, MO, USA) solution at 500 nM was added in each well and cells were incubated for 30 min at 37 °C. The intensity of fluorescence was measured with a PHERAstar FS plate reader (BMG Labtech, Ortenberg, Germany) at λex = 540 nm and λem = 590 nm. The data were processed by MARS Data Analysis v. 3.01R2 (BMG Labtech, Ortenberg, Germany). The results were presented as percent of positive control data.

[3] = DPPH radical scavenging assay (cell-free); settings: 30 min, MeOH
Protocol: The 2,2-diphenyl-1-picryl-hydrazyl-hydrate (DPPH) radical scavenging activity was tested as described previously. The compounds were dissolved in MeOH, and the solutions (120 µL) were dispensed into wells of a 96-well microplate. The DPPH (Sigma-Aldrich, Steinheim, Germany) was dissolved in MeOH at a concentration of 7.5 × 10^−3 M and the solution (30 µL) was added to each well. The concentrations of tested compounds in the mixtures were 10 and 100 µM. Ascorbic acid was used as a positive control. The mixtures were shaken and left for 30 min. The absorbance of the resulting solutions was measured at λ = 520 nm with a MultiscanFC plate reader (Thermo Scientific, Waltham, MA, USA). The concentration scavenging 50% of the DPPH radical (EC50) was calculated for each compound.

## CC(C)=CCC[C@@H](C)[C@H]1CC[C@@]2(C(=O)O)C3=C(CC[C@]12C)[C@@]1(C)CCC(=O)C(C)(C)[C@@H]1CC3 [Compound 4, penasterone]
[1]
  decrease of fluorescence of PI-straining cells: 17%
[2]
  increase of intensity of TMRM fluorescence (PQ-induced mitochondrial dysfunction diminished): 28%
[3]
  EC50: > 100 µM

— paper PMC7698842, “Lanostane Triterpenoid Metabolites from a Penares sp. Marine Sponge Protect Neuro-2a Cells against Paraquat Neurotoxicity” (Molecules, 2020)
